Experiment [1] in a line: Inhibition of Saccharomyces cerevisiae imidazole glycerol-phosphate dehydratase expressed in Escherichia coli.
The test system of experiment [2] is Saccharomyces cerevisiae. Briefly: Inhibition of Saccharomyces cerevisiae imidazole glycerol-phosphate dehydratase expressed in Escherichia coli at 1 uM.

Bounds are passed on as bounds.

A word on the IC50: it is the concentration at which inhibition is half-maximal. Read a low IC50 as inhibition by little substance. In turn, `O=C(O)C(OCCC(O)Cn1cncn1)C(=O)O` (centres undefined) registered an IC50 in experiment [1] of 30 µM.
Consider `O=P(O)(O)COCCNc1nc[nH]n1`, for which the half-maximal inhibitory concentration (IC50) in experiment [1] is 5 µM. Compared with the last molecule, the IC50 is about 6-fold lower.
Same read-out and setting: the same measure for `CNC(CC(O)CCP(=O)(O)O)c1nc[nH]n1` (centres undefined): 10 µM.
As usually defined, the inhibition is the share of the control response that was lost under treatment. `O=P(O)(O)COCC(O)Cn1cncn1` (centres undefined) gave an inhibition in experiment [2] of 80%. The molecule further came in with an IC50 in experiment [1] of less than 1 µM.
For orientation: Ki means a dissociation constant, usually derived from enzyme kinetics or from competition with a known ligand. Lower therefore signals a stronger hold on the target. Take `O=P(O)(O)CCC(O)c1nc[nH]n1` (centres undefined): in experiment [1], the concentration for half-maximal inhibition (IC50) stood at 0.13 µM and affinity was put at a Ki of 0.04 µM.
For the molecule `O=C(O)C(CCCC(O)c1nc[nH]n1)C(=O)O` (centres undefined), in experiment [1], the 50% inhibitory concentration (IC50) is more than 500 µM.
The same measure, in the same setting: next, `O=C(O)C(CCC(O)c1nc[nH]n1)C(=O)O` (centres undefined): 6 µM.
`O=P(O)(O)CC(O)Cn1cncn1` (centres undefined) displayed an inhibitory constant (Ki) in experiment [1] of 0.0006 µM.
Take `O=C(O)C(CC(O)c1nc[nH]n1)C(=O)O` (centres undefined): in experiment [1], the IC50 was more than 500 µM.
As to `O=P(O)(O)CCCCC(O)c1nc[nH]n1` (centres undefined), the IC50 in experiment [1] was 80 µM.
Still for that read-out and setting: the same measure for `O=C(O)C(OCC(O)Cn1cncn1)C(=O)O` (centres undefined): 100 µM.
In experiment [1], `O=P(O)(O)CSCC(O)Cn1cncn1` (centres undefined) showed an IC50 of 7 µM.
